According to US11759496B2, “Compounds and pharmaceutical use thereof in the treatment of cancer” (priority 2016, dated 2023):
Non-standard residues stand in square brackets, D forms with d. Residues, ends and D or L forms follow the SMILES beside them. No end group written: not given here. NMeR = CN[C@@H](CCCNC(=N)N)C(=O)O; Nle = CCCC[C@H](N)C(=O)O

What was measured:
MEC-1 cells = assay: MEC-1 cell death (PCD) after 2 h peptide treatment; type: cell-based; conditions: for Cell Death (MEC-1, 2 h): Table 4; for MEC-1 Cell Death (%) 2 h, [peptides] = 200 μM: Table 3, 200 μM peptide
Description: Then the peptides structures were tested via NMR and X-ray. The peptides were also tested for their activity on MEC-1 and their KDs and Retention times on LCMS were determined.

[1] = molecular target: T1, CD47 (membrane preparation from MEC-1 cells) (Homo sapiens, UniProt Q08722); assay: Binding affinity by biolayer interferometry (Octet RED96) on biotinylated MEC-1 cell membrane preparation; conditions: NPD = Non Pertinent Data; for Kd(μM)PR: Table 4, N-methyl peptides; for Kd (μM): Table 3, average of two or more measurements
T1 construct: MEC-1 cell membrane preparation were biotinylated with the EZ-Link NHS-PEG4-Biotin kit; endogenous in cells; host or cells: MEC-1 cells (membrane preparation)
T1 sequence (Q08722 19-323): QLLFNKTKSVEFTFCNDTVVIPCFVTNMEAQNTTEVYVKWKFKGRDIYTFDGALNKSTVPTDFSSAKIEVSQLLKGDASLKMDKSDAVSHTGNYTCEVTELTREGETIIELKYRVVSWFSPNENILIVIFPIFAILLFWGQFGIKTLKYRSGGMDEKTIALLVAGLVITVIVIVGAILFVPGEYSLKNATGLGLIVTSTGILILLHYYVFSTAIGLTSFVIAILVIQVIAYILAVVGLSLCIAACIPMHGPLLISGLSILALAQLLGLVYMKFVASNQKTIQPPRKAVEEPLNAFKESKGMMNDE
Description: The binding affinities of peptides for a membrane preparation from MEC-1 cells were measured by biolayer interferometry on an Octet RED96 System (Pall FortéBio Corp., Menlo Park, Calif.).
The binding affinities of peptides for a membrane preparation from MEC-1 cells were measured by biolayer interferometry on an Octet RED96 System (Pall FortéBio Corp., Menlo Park, Calif.). This system monitors interference of light reflected from two sources (an internal reflection surface and the liquid/solid interface of a fiber optic sensor) to measure the rate of binding of molecules to the biosensor surface.
MEC-1 cell membrane preparation were biotinylated with the EZ-Link NHS-PEG4-Biotin kit from Thermo-Scientific. Biotinylated membranes were then loaded onto SuperStreptavidin (SSA) biosensors (Pall FortéBio Corp.) at empirically determined concentrations.
In order to highlight the pharmacological properties of these peptides, a systematic SAR study by the development of a binding assay allowing to the assessment of the affinity of the 4N1K analogues to CD47 was initiated. […] An Ala-scan to identify the pharmacophores of 4N1K was implemented.
The binding affinities of peptides for a MEC-1 cells membrane preparation were measured by biolayer interferometry on an Octet RED96 System (Pall FortéBio Corp., Menlo Park, Calif.). This system monitors interference of light reflected from two sources (an internal reflection surface and the liquid/solid interface of a fiber optic sensor) to measure the rate of binding of molecules to the biosensor surface. MEC-1 cells membrane preparation is biotinylated with the EZ-Link NHS-PEG4-Biotin kit from Thermo-Scientific and excess biotin is removed using desalting column from Thermo-Scientific. Biotinylated membranes are then loaded onto SuperStreptavidin (SSA) biosensors (Pall FortéBio Corp.) at empirically determined concentrations. […] Typically, the biosensors were pre-equilibrated in PBS containing either biotinylated membranes or biocytine 100 μg/mL. Biosensors are then equilibrated in assay buffer for 10 min, brought to baseline in assay buffer for 60 sec. and transferred to wells containing peptide in dose-response (association for 120 sec. and dissociation for 300 sec.). The double reference with either membrane-loaded biosensors without any peptide dose-response or biocytine-loaded biosensors with each peptide dose-response were run in parallel for background signal double subtractions. Binding kinetics were calculated using the FortéBio Data Analysis v8.2 software.

Row | Kd(μM)PR [1] | Compound | Cell Death (MEC-1, 2 h) (MEC-1 cells) | MEC-1 Cell Death (%) 2 h, [peptides] = 200 μM (MEC-1 cells) | further results
1 | – | CSCC[C@H](NC(=O)[C@@H](NC(=O)[C@@H](NC(=O)[C@H](Cc1ccc(O)cc1)NC(=O)[C@H](Cc1ccccc1)NC(=O)[C@H](CCCNC(=N)N)N(C)C(=O)[C@H](N)CCCCN)C(C)C)C(C)C)C(=O)N[C@@H](Cc1c[nH]c2ccccc12)C(=O)N(C)[C@@H](CCCCN)C(=O)N[C@H](CCCCN)C(=O)O [PKT15, H-(D)K ψ(CONMe)R F Y V V M W ψ(CONMe)K (D)K-OH] | 10% | – | –
2 | NPD | CSCC[C@H](NC(=O)[C@@H](NC(=O)[C@H](C(C)C)N(C)C(=O)[C@H](Cc1ccc(O)cc1)NC(=O)[C@H](Cc1ccccc1)NC(=O)[C@H](CCCNC(=N)N)NC(=O)[C@H](N)CCCCN)C(C)C)C(=O)N[C@@H](Cc1c[nH]c2ccccc12)C(=O)N[C@@H](CCCCN)C(=O)N[C@H](CCCCN)C(=O)O [PKT8, H-(D)K R F Y ψ(CONMe)V V M W K (D)K-OH] | 0% | – | –
3 | – | CSCC[C@H](NC(=O)[C@@H](NC(=O)[C@@H](NC(=O)[C@H](Cc1ccc(O)cc1)NC(=O)[C@H](Cc1ccccc1)NC(=O)[C@H](CCCNC(=N)N)N(C)C(=O)[C@H](N)CCCCN)C(C)C)C(C)C)C(=O)N[C@@H](Cc1c[nH]c2ccccc12)C(=O)N[C@@H](CCCCN)C(=O)N[C@H](CCCCN)C(=O)O [PKT11, H-(D)K ψ(CONMe)R F Y V V M W K (D)K-OH] | 60% | – | –
4 | – | CSCC[C@H](NC(=O)[C@@H](NC(=O)[C@@H](NC(=O)[C@H](Cc1ccc(O)cc1)NC(=O)[C@H](Cc1ccccc1)NC(=O)[C@H](C)NC(=O)[C@H](N)CCCCN)C(C)C)C(C)C)C(=O)N[C@@H](Cc1c[nH]c2ccccc12)C(=O)N[C@@H](CCCCN)C(=O)N[C@H](CCCCN)C(=O)O [R2/A, k(A)FYVVMWKk] (H-[dK]AFYVVMWK[dK]-OH) | – | 44% | –
5 | – | CSCC[C@H](NC(=O)[C@@H](NC(=O)[C@@H](NC(=O)[C@H](Cc1ccc(O)cc1)NC(=O)[C@H](Cc1ccccc1)NC(=O)[C@H](CCCNC(=N)N)NC(=O)[C@H](CCCCN)NC(C)=O)C(C)C)C(C)C)C(=O)N[C@@H](Cc1c[nH]c2ccccc12)C(=O)N[C@@H](CCCCN)C(=O)N[C@@H](CCCCN)C(N)=O [compound 2] (Ac-KRFYVVMWKK-NH2) | – | – | MEC-1 Cell Death (%) 2 h (MEC-1 cells; Table 2, NPD = Non Pertinent Data): 30%
6 | – | CSCC[C@H](NC(=O)[C@H](C)NC(=O)[C@@H](NC(=O)[C@H](Cc1ccc(O)cc1)NC(=O)[C@H](Cc1ccccc1)NC(=O)[C@H](CCCNC(=N)N)NC(=O)[C@H](N)CCCCN)C(C)C)C(=O)N[C@@H](Cc1c[nH]c2ccccc12)C(=O)N[C@@H](CCCCN)C(=O)N[C@H](CCCCN)C(=O)O [V6/A, kRFYV(A)MWKk] (H-[dK]RFYVAMWK[dK]-OH; N-terminus and C-terminus assumed) | – | 30% | Kd (μM) [1]: NPD
7 | – | CC(C)[C@H](NC(=O)[C@H](Cc1ccc(O)cc1)NC(=O)[C@H](Cc1ccccc1)NC(=O)[C@H](CCCNC(=N)N)NC(=O)[C@H](N)CCCCN)C(=O)N[C@H](C(=O)N[C@@H](C)C(=O)N[C@@H](Cc1c[nH]c2ccccc12)C(=O)N[C@@H](CCCCN)C(=O)N[C@H](CCCCN)C(=O)O)C(C)C [M7/A, kRFYVV(A)WKk] (H-[dK]RFYVVAWK[dK]-OH; N-terminus and C-terminus assumed) | – | 6% | –
8 | NPD | CSCC[C@H](NC(=O)[C@@H](NC(=O)[C@@H](NC(=O)[C@H](Cc1ccc(O)cc1)NC(=O)[C@H](Cc1ccccc1)N(C)C(=O)[C@H](CCCNC(=N)N)NC(=O)[C@H](N)CCCCN)C(C)C)C(C)C)C(=O)N[C@@H](Cc1c[nH]c2ccccc12)C(=O)N[C@@H](CCCCN)C(=O)N[C@H](CCCCN)C(=O)O [PKT10, H-(D)K R ψ(CONMe)F Y V V M W K (D)K-OH] | 0% | – | –
9 | NPD | CSCC[C@H](NC(=O)[C@H](C(C)C)N(C)C(=O)[C@@H](NC(=O)[C@H](Cc1ccc(O)cc1)NC(=O)[C@H](Cc1ccccc1)NC(=O)[C@H](CCCNC(=N)N)NC(=O)[C@H](N)CCCCN)C(C)C)C(=O)N[C@@H](Cc1c[nH]c2ccccc12)C(=O)N[C@@H](CCCCN)C(=O)N[C@H](CCCCN)C(=O)O [PKT7, H-(D)K R F Y V ψ(CONMe)V M W K (D)K-OH] | 0% | – | –
10 | NPD | CSCC[C@H](NC(=O)[C@@H](NC(=O)[C@@H](NC(=O)[C@H](Cc1ccc(O)cc1)N(C)C(=O)[C@H](Cc1ccccc1)NC(=O)[C@H](CCCNC(=N)N)NC(=O)[C@H](N)CCCCN)C(C)C)C(C)C)C(=O)N[C@@H](Cc1c[nH]c2ccccc12)C(=O)N[C@@H](CCCCN)C(=O)N[C@H](CCCCN)C(=O)O [PKT9, H-(D)K R F ψ(CONMe)Y V V M W K (D)K-OH] | 0% | – | –
11 | – | CSCC[C@H](NC(=O)[C@@H](NC(=O)[C@H](C)NC(=O)[C@H](Cc1ccc(O)cc1)NC(=O)[C@H](Cc1ccccc1)NC(=O)[C@H](CCCNC(=N)N)NC(=O)[C@H](N)CCCCN)C(C)C)C(=O)N[C@@H](Cc1c[nH]c2ccccc12)C(=O)N[C@@H](CCCCN)C(=O)N[C@H](CCCCN)C(=O)O [V5/A, kRFY(A)VMWKk] (H-[dK]RFYAVMWK[dK]-OH; N-terminus and C-terminus assumed) | – | 12% | Kd (μM) [1]: NPD
12 | – | CSCC[C@H](NC(=O)[C@@H](NC(=O)[C@@H](NC(=O)[C@H](Cc1ccc(O)cc1)NC(=O)[C@H](Cc1ccccc1)NC(=O)[C@H](CCCNC(=N)N)NC(=O)[C@H](N)CCCCN)C(C)C)C(C)C)C(=O)N[C@@H](Cc1c[nH]c2ccccc12)C(=O)N[C@@H](C)C(=O)N[C@H](CCCCN)C(=O)O [K9/A, kRFYVVMW(A)k] (H-[dK]RFYVVMWA[dK]-OH) | – | 46% | –
13 | NPD | CSCC[C@H](NC(=O)[C@@H](NC(=O)[C@@H](NC(=O)[C@H](Cc1ccc(O)cc1)NC(=O)[C@H](Cc1ccccc1)NC(=O)[C@H](CCCNC(=N)N)NC(=O)[C@H](N)CCCCN)C(C)C)C(C)C)C(=O)N(C)[C@@H](Cc1c[nH]c2ccccc12)C(=O)N[C@@H](CCCCN)C(=O)N[C@H](CCCCN)C(=O)O [PKT12, H-(D)K R F Y V V M ψ(CONMe)W K (D)K-OH] | 0% | – | –
14 | – | H-(D)K ψ(CONMe)R F Y VV I W K (D)K-OH [PKT18] | 45% | – | –
15 | – | CCCC[C@H](NC(=O)[C@@H](NC(=O)[C@@H](NC(=O)[C@H](Cc1ccc(O)cc1)NC(=O)[C@H](Cc1ccccc1)NC(=O)[C@H](CCCNC(=N)N)NC(=O)[C@H](N)CCCCN)C(C)C)C(C)C)C(=O)N[C@@H](Cc1c[nH]c2ccccc12)C(=O)N[C@@H](CCCCN)C(=O)N[C@H](CCCCN)C(=O)O [M/Nle, kRFYVV(Nle)WKk] (H-[dK]RFYVV[Nle]WK[dK]-OH) | – | 47% | –
16 | – | kRF(A)VVMWKk ([dK]RFAVVMWK[dK]) [Y4/A] | – | 0% | Kd (μM) [1]: NPD
17 | – | CC(C)C[C@H](NC(=O)[C@@H](NC(=O)[C@@H](NC(=O)[C@H](Cc1ccc(O)cc1)NC(=O)[C@H](Cc1ccccc1)NC(=O)[C@H](CCCNC(=N)N)N(C)C(=O)[C@H](N)CCCCN)C(C)C)C(C)C)C(=O)N[C@@H](Cc1c[nH]c2ccccc12)C(=O)N[C@@H](CCCCN)C(=O)N[C@H](CCCCN)C(=O)O [PKT17, H-(D)K ψ(CONMe)R F Y V V L W K (D)K-OH] (H-[dK][NMeR]FYVVLWK[dK]-OH) | 30% | – | –

Row | Compound | Kd(μM)PR [1] | Cell Death (MEC-1, 2 h) (MEC-1 cells) | MEC-1 Cell Death (%) 2 h, [peptides] = 200 μM (MEC-1 cells) | further results
18 | H-(D)K R F Y V V M W ψ(CONMe)K (D)K-OH (KRFYVVMWKK; D-residues, N-methyl amide bond; (1)..(1) Amino acid at position 1 is in the D-configuration; (9)..(9) Amino acid at position 9 is backbone-N- …ON of the Lysine; (10)..(10) Amino acid at position 10 is in the D-configuration) [PKT14] | NPD | 35% | – | –
19 | H-(D)K R F Y V V ψ(CONMe)M W K (D)K-OH (KRFYVVMWKK; D-residues, N-methyl amide bond; (1)..(1) Amino acid at position 1 is in the D-configuration; (7)..(7) Amino acid at position 7 is backbone-N- …ON of the Methionine; (10)..(10) Amino acid at position 10 is in the D-configuration) [PKT13] | NPD | 0% | – | –
